For one molecule, IC50 results are on record in patent US20070154580A1, “Antiviral Morinda Citrifolia L. Based Formulations and Methods of Administration” (priority 2005, published 2007).

One may read the IC50 as the concentration that inhibits the measured activity by half.

Where two headings read alike, the source gives them in different places.

Test [1] addresses T1, Protease, CTSG (Cathepsin G) (Homo sapiens, UniProt P08311).
T1 sequence (P08311 21-255): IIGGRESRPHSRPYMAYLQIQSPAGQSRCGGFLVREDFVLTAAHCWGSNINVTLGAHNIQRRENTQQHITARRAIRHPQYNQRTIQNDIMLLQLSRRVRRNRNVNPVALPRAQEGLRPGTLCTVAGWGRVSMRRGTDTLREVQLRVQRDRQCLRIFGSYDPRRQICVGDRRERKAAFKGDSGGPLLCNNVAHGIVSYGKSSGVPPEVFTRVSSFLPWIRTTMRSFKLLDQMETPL
The conditions noted are these: reference compound, historical value; cited from earlier work.

The target in test [2] is T1, Protease, CTSG (Cathepsin G). The test can be described thus: Protease, CTSG (Cathepsin G) inhibition assay. The test is classed as biochemical. The conditions noted are these: reference compound, concurrent run; read-out: Concurrent MIC IC50.

Turning to `CC(C)C[C@H](NC(=O)[C@@H](NC(=O)N[C@@H](Cc1ccccc1)C(=O)O)[C@@H]1CCN=C(N)N1)C(=O)N[C@H](C=O)Cc1ccccc1` [Chumostatin], the IC50 in test [1] was 2.1 µM; in test [2] it was 1.22 µM.
